Source: patent US20230041996A1, “CALCIUM-SENSING RECEPTOR AGONIST COMPOUND AND APPLICATION THEREOF” (BEIJING TUO JIE BIOPHARMACEUTICAL CO. LTD., priority 2019, published 2023)
Square brackets hold non-standard residues; d marks the D form. Peptide text beside a SMILES is read from it. * marks the point of attachment. dPhe(4-Me) = Cc1ccc(C[C@@H](N)C(=O)O)cc1; Cys(free,S-linked) = N[C@@H](CS*)C(=O)O; dPhe(2-Cl) = N[C@H](Cc1ccccc1Cl)C(=O)O; d(hLeu) = CC(C)CC[C@@H](N)C(=O)O; dPhg = N[C@@H](C(=O)O)c1ccccc1

What was measured:
[1] = molecular target: T1, human calcium-sensing receptor (CaSR) (Homo sapiens, UniProt P41180); test: Agonist activity on human calcium-sensing receptor (IP-One HTRF in stably transfected HEK293/CaSR cells); format: cell-based; settings: HEK293/CaSR cells, IP-One production, 60 min at 37° C., CaCl2 1.2 mM; read-out: EC50 for calcium-sensing receptor
T1 construct: host or cells: HEK293
T1 sequence (P41180 20-1078): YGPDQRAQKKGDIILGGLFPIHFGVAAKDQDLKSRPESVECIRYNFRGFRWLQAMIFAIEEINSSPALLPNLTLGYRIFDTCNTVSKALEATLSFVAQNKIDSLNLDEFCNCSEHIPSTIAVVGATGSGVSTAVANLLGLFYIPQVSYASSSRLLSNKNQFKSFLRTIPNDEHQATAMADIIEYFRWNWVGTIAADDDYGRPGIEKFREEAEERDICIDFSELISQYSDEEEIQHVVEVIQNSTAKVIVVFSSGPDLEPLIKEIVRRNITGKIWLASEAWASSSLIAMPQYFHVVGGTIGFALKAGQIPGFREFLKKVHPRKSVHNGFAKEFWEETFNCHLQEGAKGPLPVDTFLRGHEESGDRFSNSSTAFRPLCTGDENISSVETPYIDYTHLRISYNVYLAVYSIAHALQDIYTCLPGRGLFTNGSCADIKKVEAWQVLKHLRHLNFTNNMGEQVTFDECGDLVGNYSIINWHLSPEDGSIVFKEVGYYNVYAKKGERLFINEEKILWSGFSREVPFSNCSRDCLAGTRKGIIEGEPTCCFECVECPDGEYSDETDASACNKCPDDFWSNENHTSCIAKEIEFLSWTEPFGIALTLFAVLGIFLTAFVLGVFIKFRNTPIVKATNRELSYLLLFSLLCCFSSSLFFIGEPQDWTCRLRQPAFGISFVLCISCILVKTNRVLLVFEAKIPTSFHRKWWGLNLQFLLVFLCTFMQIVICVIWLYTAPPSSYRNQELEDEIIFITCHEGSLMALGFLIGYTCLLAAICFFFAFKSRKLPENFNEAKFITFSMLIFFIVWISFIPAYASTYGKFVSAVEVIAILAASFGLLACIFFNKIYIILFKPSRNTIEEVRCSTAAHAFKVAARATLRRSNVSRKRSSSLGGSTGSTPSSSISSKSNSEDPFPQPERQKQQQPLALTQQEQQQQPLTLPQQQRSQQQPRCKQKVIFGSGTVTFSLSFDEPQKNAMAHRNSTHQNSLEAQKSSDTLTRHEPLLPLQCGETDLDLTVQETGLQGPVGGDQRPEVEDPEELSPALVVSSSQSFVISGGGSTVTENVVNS
Experimental: 3.1.1 Objective: The test example is intended to measure the agonist activity of compounds 1-38 on the human calcium-sensing receptor (CaSR).
Stably transfected HEK293/CaSR cells (source: Pharmaron) were cultured in a complete medium (composition: DMEM, high glucose+10% FBS+2 mM GlutaMAX+1× Penicillin-Streptomycin+200 μg/mL Hygromycin B) and incubated at 37° C./5% CO2 till 70%-90% cell confluence. The cells were digested with TrypLE, inoculated into 384-well cell culture plates, and cultured overnight at 37° C./5% CO2. After buffer exchange, stimulation buffer (HEPES 10 mM, MgCl2 0.5 mM, KCl 4.2 mM, NaCl 146 mM, glucose 5.5 mM, LiCl 50 mM, CaCl2 1.2 mM) and various concentrations of the test example compounds were added and incubated at 37° C. for 60 min. Production of IP-One in cells was detected according to the procedures in the Cisbio IP-One Tb kit instructions. The EC50 values of various test example compounds in influencing human calcium-sensing receptor was calculated by software after the raw data of the example compounds were collected, so as to evaluate the agonist activity of the example compounds on human calcium-sensing receptor.
HTRF signal was read by an EnVision detector with an excitation wavelength of 320 nm and emission wavelengths of 620 nm and 665 nm. The signal ratio (665 nm/620 nm×10,000) was calculated and fitted non-linearly to the sample concentration in GraphPad Prism 6 using a four-parameter equation to give EC50 values of the test example compounds 1-38.

human red blood cells = test: Hemolytic effect on human red blood cells in vitro (absorbance at 540 nm); format: cell-based; settings: 37° C., 1 h, FIG. 1
Experimental: To evaluate the hemolytic effect of the compounds disclosed herein on red blood cells in vitro, human whole blood (100 μL) was taken and mixed with a phosphate buffer. The mixture was centrifuged at 4° C. for 10 min and the supernatant was discarded. The red blood cells were resuspended in PBS buffer (900 μL) and centrifuged at 4° C. for 10 min with the supernatant discarded, and the procedures above were repeated once. The test example compounds were dissolved in 1×PBS buffer to a final concentration of 100 μg/mL. The red blood cells were resuspended in solutions of various test example compounds, an octylphenoxy poly(ethyleneoxy)ethanol-100 solution or PBS buffer, and incubated at 37° C. for 1 h. After incubation, the cells were centrifuged at 4° C. for 10 min and the supernatant (100 μL) was pipetted and transferred to a 96-well plate. The absorbance at 540 nm was detected for evaluating the hemolytic effect of the test example compounds on red blood cells in vitro.

[2] = system: rat peritoneal mast cells; test: In vitro histamine release in rat peritoneal mast cells (histamine ELISA); format: cell-based; settings: for Relative fold of histamine release in vitro: test compound final concentration 10 μM, 15 min at 37° C., relative to PBS buffer (1.00)
Experimental: To evaluate the in vitro histamine release levels induced by some of the test example compounds, rat peritoneal mast cells were collected by lavaging rat peritoneum with a lavage buffer (cold HBSS+25 mM HEPES containing heparin 5 U/mL, pH 7.4). After collection, the cells were centrifuged, and the lavage buffer was discarded. The cells were resuspended and washed twice with a stimulation buffer (HBSS+25 mM HEPES+1 mM CaCl2), pH 7.4). The cells were plated at a density of 10^5 cell/well (200 μL/well) and incubated at 37° C. for 15 min with positive control compound 48/80 (final concentration: 4 μg/mL), test example compounds (final concentration: 10 μM) or vehicle control. The cells were centrifuged, and cell supernatant was collected and tested for histamine concentration according to LDN Histamine ELISA kit (BAE-1000) instructions.

5/6 nephrectomized rats = test: In vivo efficacy in 5/6 nephrectomized rat model after continuous administration (plasma parathyroid hormone, serum calcium)
Source text: 3.5.1 Objective: to evaluate the efficacy of some of the compounds disclosed herein in reducing plasma parathyroid hormone level and serum calcium level after continuous administration in a 5/6 nephrectomized rat model.
The rats were adapted. After anesthesia, ⅔ of the left kidney was surgically resected, and after 1 week of recovery, the right kidney was resected to establish the 5/6 nephrectomized rat model. After the second resection, the animals were normally fed for 2 weeks, tested for creatinine (CREA) and plasma parathyroid hormone level, and randomized as per the parathyroid hormone level into 4 groups of 10, including normal saline group, compound 17—low dose group, compound 17—high dose group and etelcalcetide group. After randomization, the normal saline group, compound 17—low dose group, compound 17—high dose group and etelcalcetide group were respectively administered with 1 dose of normal saline, 1 mg/kg of compound 17, 2 mg/kg of compound 17 and 1 mg/kg of etelcalcetide through the tail vein daily for 28 days. During the treatment period, parameters such as animal weight, plasma parathyroid hormone level and serum calcium were detected. The first day of treatment was taken as day 1.

| Compound | EC50 [1] | hemolytic effect on red blood cells (human red blood cells; 100 μg/mL in PBS) | Relative fold of histamine release in vitro [2] | histamine release levels in rat peritoneal mast cells in vitro relative to etelcalcetide ([2]; 10 μM, comparison with etelcalcetide) | serum calcium reduction (5/6 nephrectomized rats; after administration on days 1, 14 and 28) | extent of serum calcium reduction with the period of treatment (5/6 nephrectomized rats; minimum of serum calcium on days 14 and 28 compared to day 1) | hemolytic effect on red blood cells (human red blood cells; positive control solution) |
| --- | --- | --- | --- | --- | --- | --- | --- |
| CC(=O)N[C@H](CSSC[C@H](N)C(=O)O)C(=O)N[C@H](CCCNC(=N)N)C(=O)N[C@H](CCCNC(=N)N)C(=O)N[C@H](Cc1ccc(C)cc1)C(=O)N[C@H](CCCNC(=N)N)C(=O)N[C@H](C)C(=O)N[C@H](CCCNC(=N)N)C(N)=O [Compound 12, Ac-c(C)-r-r-[D-Phe(4-CH3)]-r-a-r-NH2] (Ac-[dC](Cys(free,S-linked))[dR][dR][dPhe(4-Me)][dR][dA][dR]-NH2) | 1.28 µM | no significant hemolytic effect | 2.81 | – | – | – | – |
| CC(=O)N[C@H](CSSC[C@H](N)C(=O)O)C(=O)N[C@H](CCCNC(=N)N)C(=O)N[C@H](CCCNC(=N)N)C(=O)N[C@@H](C(=O)N[C@H](CCCNC(=N)N)C(=O)N[C@H](CO)C(=O)N[C@H](CCCNC(=N)N)C(N)=O)C(C)C [Compound 29, Ac-c(C)-r-r-v-r-s-r-NH2] (Ac-[dC](Cys(free,S-linked))[dR][dR][dV][dR][dS][dR]-NH2) | 9.8 µM | no significant hemolytic effect | 0.99 | reduction in histamine release levels | – | – | – |
| CC(=O)N[C@H](CSSC[C@H](N)C(=O)O)C(=O)N[C@H](C)C(=O)N[C@H](CCCNC(=N)N)C(=O)N[C@H](CCCNC(=N)N)C(=O)N[C@H](CCCNC(=N)N)C(=O)N[C@H](C)C(=O)N[C@H](CCCNC(=N)N)C(N)=O [Etelcalcetide, Ac-c(C)-a-r-r-r-a-r-NH2, reference compound] | 6.78 µM | – | 1.70 | – | reversible serum calcium reduction | did not increase with the period of treatment | – |
| octylphenoxy poly(ethyleneoxy)ethanol-100 [reference compound] | – | – | – | – | – | – | significant hemolytic effect |
| CC(=O)N[C@H](CSSC[C@H](N)C(=O)O)C(=O)N[C@H](CCCNC(=N)N)C(=O)N[C@H](CCCNC(=N)N)C(=O)N[C@H](CCC(C)C)C(=O)N[C@H](CCCNC(=N)N)C(=O)N[C@H](C)C(=O)N[C@H](CCCNC(=N)N)C(N)=O [Compound 19, Ac-c(C)-r-r-(D-hLeu)-r-a-r-NH2] (Ac-[dC](Cys(free,S-linked))[dR][dR][d(hLeu)][dR][dA][dR]-NH2) | 2.05 µM | no significant hemolytic effect | 2.07 | – | – | – | – |
| CC(=O)N[C@H](CSSC[C@H](N)C(=O)O)C(=O)N[C@H](CCCNC(=N)N)C(=O)N[C@H](CCCNC(=N)N)C(=O)N[C@H](CO)C(=O)N[C@H](CCCNC(=N)N)C(=O)N[C@H](CO)C(=O)N[C@H](CCCNC(=N)N)C(N)=O [Compound 25, Ac-c(C)-r-r-s-r-s-r-NH2] (Ac-[dC](Cys(free,S-linked))[dR][dR][dS][dR][dS][dR]-NH2) | 10.1 µM | – | 1.65 | – | – | – | – |
| CC(=O)N[C@H](CSSC[C@H](N)C(=O)O)C(=O)N[C@H](Cc1c[nH]cn1)C(=O)N[C@H](CCCNC(=N)N)C(=O)N[C@H](CCCNC(=N)N)C(=O)N[C@H](CCCNC(=N)N)C(=O)NCC(=O)N[C@H](CCCNC(=N)N)C(N)=O [Compound 7, Ac-c(C)-h-r-r-r-G-r-NH2] (Ac-[dC](Cys(free,S-linked))[dH][dR][dR][dR]G[dR]-NH2) | 18.6 µM | – | 2.24 | – | – | – | – |
| CC(=O)N[C@H](CSSC[C@H](N)C(=O)O)C(=O)N[C@H](Cc1ccccc1Cl)C(=O)N[C@H](CCCNC(=N)N)C(=O)N[C@H](CCCNC(=N)N)C(=O)N[C@H](CCCNC(=N)N)C(=O)N[C@H](C)C(=O)N[C@H](CCCNC(=N)N)C(N)=O [Compound 2, Ac-c(C)-[D-Phe(2-Cl)]-r-r-r-a-r-NH2] (Ac-[dC](Cys(free,S-linked))[dPhe(2-Cl)][dR][dR][dR][dA][dR]-NH2) | 6.76 µM | – | 4.96 | – | – | – | – |
| CC(=O)N[C@H](CSSC[C@H](N)C(=O)O)C(=O)N[C@H](CCCNC(=N)N)C(=O)N[C@H](CCCNC(=N)N)C(=O)N[C@@H](C(=O)N[C@H](CCCNC(=N)N)C(=O)N[C@H](C)C(=O)N[C@H](CCCNC(=N)N)C(N)=O)c1ccccc1 [Compound 11, Ac-c(C)-r-r-(D-Phg)-r-a-r-NH2] (Ac-[dC](Cys(free,S-linked))[dR][dR][dPhg][dR][dA][dR]-NH2) | 15.7 µM | – | 1.11 | – | – | – | – |
